The results in this text go back to PubChem BioAssay AID1645863 (Buhrlage Lab, Dana-Farber Cancer Institute and Novartis …, 2021).

Calls of active or inactive are those of the source. How the calls were made is not given here. Where only a bound is given, the exact number is not on record here.

Sequence of Ubiquitin carboxyl-terminal hydrolase 10 (Homo sapiens) (Q14694 whole entry, looked up): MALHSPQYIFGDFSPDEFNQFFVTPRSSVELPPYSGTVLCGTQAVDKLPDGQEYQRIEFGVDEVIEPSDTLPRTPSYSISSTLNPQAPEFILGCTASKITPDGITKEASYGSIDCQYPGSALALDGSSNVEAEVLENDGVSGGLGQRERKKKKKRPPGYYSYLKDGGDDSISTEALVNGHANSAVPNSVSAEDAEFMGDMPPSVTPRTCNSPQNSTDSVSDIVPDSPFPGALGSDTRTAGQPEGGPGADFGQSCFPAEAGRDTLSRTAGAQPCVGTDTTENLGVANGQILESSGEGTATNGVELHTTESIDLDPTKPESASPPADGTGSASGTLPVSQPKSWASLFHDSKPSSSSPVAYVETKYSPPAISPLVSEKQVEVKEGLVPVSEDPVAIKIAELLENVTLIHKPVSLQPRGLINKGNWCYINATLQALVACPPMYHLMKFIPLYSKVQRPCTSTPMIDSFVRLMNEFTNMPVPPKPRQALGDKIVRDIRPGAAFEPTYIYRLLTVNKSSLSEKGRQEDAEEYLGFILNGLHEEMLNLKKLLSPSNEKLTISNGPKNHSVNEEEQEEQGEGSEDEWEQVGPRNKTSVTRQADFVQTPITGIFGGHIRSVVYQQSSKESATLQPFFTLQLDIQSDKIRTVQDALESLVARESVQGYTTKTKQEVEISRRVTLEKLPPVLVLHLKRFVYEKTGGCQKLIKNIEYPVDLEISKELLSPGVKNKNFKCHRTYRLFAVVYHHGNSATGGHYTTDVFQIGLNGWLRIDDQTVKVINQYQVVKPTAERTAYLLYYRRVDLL

This assay concerns the target Ubiquitin carboxyl-terminal hydrolase 10 (Homo sapiens) (UniProt Q14694). Kind of assay: ubiquitin-specific protease 10 DUB inhibitors, concentration-effect, biochemical, verification of primary screen actives (AID 1645863).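 Further: potency values describe inhibition of USP10 cleavage of a fluorogenic ubiquitin substrate.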 The following applies: USP10 deubiquitinase enzymatic assay.
Take `COc1ccccc1CNC(=O)Cn1cnc2c(-c3ccccc3)csc2c1=O`: the IC50 was > 40 µM (inactive).

For the compound `COc1ccc(OC)c2c(C)cc(N3CC(C)CC(C)C3)nc12` (stereo unspecified), the IC50 is > 40 µM (inactive).

Take `O=C(NCCc1ccccc1)c1ccc2c(=O)n(Cc3ccco3)c(=O)n(Cc3cccc([N+](=O)[O-])c3)c2c1`: the IC50 is 8.37 µM.

`Cc1cc(Nc2cccc(Cl)c2)n2nc(-c3cccnc3)nc2n1`: the IC50 was > 40 µM (inactive).

For the compound `C/C(=C\Cc1c(O)cc(C)c(C=O)c1O)CC[C@@]1(C)[C@H](C)CCC(=O)[C@@H]1C`, the IC50 is > 40 µM (inactive).

Consider `CC(=O)c1cccc(NC(=O)COC(=O)c2sc3cc(F)ccc3c2Cl)c1`, for which the IC50 is > 40 µM (inactive).

Turning to `COc1ccc(OCCn2c(C3CC(=O)N(c4cccc(C)c4)C3)nc3ccccc32)cc1` (stereo unspecified), the IC50 is 15.2 µM.

In the case of `COc1ccc(CNC(=O)CN2C(=O)CC(c3ccccc3)=Nc3ccccc32)cc1`, the IC50 is > 40 µM (inactive).

`O=c1[nH]c(C2CCN(S(=O)(=O)c3ccc(S(=O)(=O)NC4CCCC4)cc3)CC2)nc2c1nnn2Cc1cccc(Cl)c1`: the half-maximal inhibitory concentration (IC50) is 13.2 µM.

Turning to `COc1ccc(CNC(=O)Cn2c(=O)[nH]c3c(-c4ccccc4F)c[nH]c3c2=O)cc1`, the IC50 is > 40 µM (inactive).

For `Cc1ccc(-n2cc(C(=O)NCCCc3ccccc3)nn2)cc1`, the IC50 is 29.5 µM.

On to `COc1ccc(OC)c(-c2cn3ccn(-c4ccc(F)c(Cl)c4)c(=O)c3n2)c1`, for which the IC50 was 18.7 µM.

Regarding `COc1ccc(C2/C(=C(\O)c3ccccc3)C(=O)C(=O)N2c2nc3ccc(F)cc3s2)cc1` (stereo unspecified), the 50% inhibitory concentration (IC50) was 8.94 µM.

As to `COc1ccc(-c2cc3nc([C@H](C)NC(=O)Cc4cccc(F)c4)nn3cn2)cc1`, the IC50 is > 40 µM (inactive).

As for `COc1ccc(-c2cc3nc([C@H](C)NC(=O)CC4CCCC4)nn3cn2)cc1`, the IC50 is > 40 µM (inactive).

`O=S(=O)(Nc1ccc(Oc2ncnc3cc(Cl)ccc23)nc1)c1ccc(S(=O)(=O)c2ccccc2)s1`: the IC50 is 29.5 µM.

On to `Cc1ccc(C(=O)c2cn(CC(=O)Nc3ccccc3)c3ccc(C)cc3c2=O)cc1`, for which the IC50 is > 40 µM (inactive).

As to `O=C(COC(=O)c1cc2c(s1)CCC2)c1ccc2[nH]c(=O)[nH]c2c1`, the IC50 was > 40 µM (inactive).

Turning to `CCOc1ccccc1-c1cc(NC(=O)c2cc3ccc4cccnc4c3[nH]2)on1`, the IC50 was > 40 µM (inactive).

On to `CCN(c1ccc(NC(=O)COC(=O)c2cccnc2Nc2cccc(C(F)(F)F)c2)cc1)C(C)C`, for which the IC50 is > 40 µM (inactive).

Consider `O=c1cc(Cc2ccccc2)nc2c(-c3ccccc3)c(COc3ccccc3)[nH]n12`, for which the IC50 entry was “inactive”.

Turning to `CCCCCCC1CCC(O)CC(O)CC(O)CC(O)CC(O)CC(O)/C(C)=C/C=C\C=C/C=C/C=C/[C@H](O)[C@@H](C)OC1=O` (stereo partly specified), the IC50 was > 40 µM (inactive).

On to `Cc1cc(NC(=O)CN2CCCN(S(=O)(=O)c3ccc(F)cc3)CC2)ccc1Br`, for which the IC50 is > 40 µM (inactive).

With `CCN(c1ccc(NC(=O)CSc2nnc(-c3ccccc3)n2-c2ccc(OC)c(OC)c2)cc1)C(C)C`, the IC50 was > 40 µM (inactive).

On to `N#Cc1ccc(NC(=O)Nc2cccn(Cc3ccccc3Br)c2=O)cc1`, for which the IC50 was > 40 µM (inactive).

As to `CC(C)=CCc1c2c(c3occ(-c4ccc(O)cc4)c(=O)c3c1O)C=CC(C)(C)O2`, the IC50 is > 40 µM (inactive).

With `Cc1cc(C)c(C#N)c(N2CCN(CCOc3ccc(Cl)cc3)CC2)n1`, the IC50 is > 40 µM (inactive).

Turning to `Cc1ccc(-c2nc(NC(=O)COc3ccc(Cl)cc3)no2)cc1`, the IC50 was 13.5 µM.

For `Cc1ccc(Cn2cc(C(=O)Nc3ccccc3C(N)=O)ccc2=O)cc1`, the IC50 was 2.81 µM.

Consider `N=C1/C(=C/c2cn(Cc3ccccc3F)c3ccccc23)C(=O)N=C2SC(C(F)(F)F)=NN12`, for which the IC50 result was “inactive”.

As to `O=C(Nc1cccc(Br)c1)c1cc(-c2cccnc2)n[nH]1`, the IC50 is 19.9 µM.

Consider `CCOC(=O)C1CCN(C(=O)c2ccc3c(c2)NC(=O)C2CCCN32)CC1` (stereo unspecified), for which the IC50 is > 40 µM (inactive).

Turning to `O=C(Nc1nc(-c2ccccc2)ns1)c1ccc2ncsc2c1`, the half-inhibitory concentration (IC50) is 31.6 µM.

In the case of `COc1ccc([N+](=O)[O-])cc1NC(=O)COC(=O)c1ccc2[nH]c3c(c2c1)CCCC3`, the IC50 was 18.3 µM.

As to `Cc1cccc(COc2ccc(C3SCC(=O)Nc4n[nH]c(C)c43)cc2)c1` (stereo unspecified), the IC50 is > 40 µM (inactive).

Turning to `O=C(CNS(=O)(=O)c1ccc(F)cc1)N1CCCC(c2nnc3ccccn23)C1` (stereo unspecified), the IC50 is > 40 µM (inactive).

For the compound `Cc1cc(NC(=O)c2cc(-c3cccnc3)n[nH]2)ccc1Br`, the IC50 was 28.6 µM.

As to `CN1CCC(N2CCN(C(=O)C3CCCN(c4cnc5nccnc5c4)C3)CC2)CC1` (stereo unspecified), the IC50 was > 40 µM (inactive).

Turning to `COc1ccc(OC)c(NC(=O)c2cc(Cl)ccc2OC)c1`, the IC50 was > 40 µM (inactive).

Take `O=C(NCCc1nc2ccccc2n1CCOc1ccccc1Cl)C1CCCCC1`: the IC50 is 36.8 µM.

Take `CCCc1ccc(C(=O)[C@@H]2[C@@H](C(=O)c3cccs3)N3c4ccc(C)cc4C(C)=C[C@@H]3[C@@]23C(=O)Nc2ccccc23)cc1`: the IC50 is > 40 µM (inactive).

For the compound `COc1ccc(C2(c3nnc(C(C)Oc4ccc(F)cc4)o3)CCOCC2)cc1` (stereo unspecified), the IC50 was > 40 µM (inactive).

On to `CC(C)=CCCC1(C)C=Cc2c(O)c3c(c(CC=C(C)C)c2O1)OC12C(=CC4CC1C(C)(C)OC2(C/C=C(/C)C(=O)O)C4=O)C3=O` (stereo unspecified), for which the IC50 was 9.59 µM.

In the case of `Cc1ccc(Nc2nc(Nc3cccc(F)c3)nc3nccnc23)c(C)c1`, the IC50 was > 40 µM (inactive).

As to `CCC(=O)Nc1nc2cc(NC(=O)Nc3ccc(C)cc3)ccc2s1`, the IC50 is > 40 µM (inactive).

As to `Cc1cc(C)c(NC(=O)Cn2c(=O)n(CCC(=O)NCc3ccc4c(c3)OCO4)c(=O)c3sccc32)c(C)c1`, the IC50 is 21.4 µM.

As for `COc1cc2c(oc(=O)c3cc(C)cc(OC)c32)c2c([C@@H]3OC(C)[C@@H](O)[C@@](C)(O)C3O)ccc(O)c12` (stereo partly specified), the IC50 was > 40 µM (inactive).

With `COc1cccc(CNC(=O)c2nnn(CC(=O)Nc3cc(C)ccc3C)c2N)c1`, the IC50 was 29.9 µM.

As for `COc1cccc(NC(=O)c2oc3ccccc3c2NC(=O)COc2cccc(OC)c2)c1`, the IC50 was > 40 µM (inactive).

Take `O=C(CSc1ccc2nnc(-c3ccc(Cl)cc3)n2n1)N1CCCCC1`: the IC50 was > 40 µM (inactive).

Turning to `Cc1ccc(C2SCC(=O)Nc3c2c(=O)[nH]n3C2CCCCC2)cc1` (stereo unspecified), the IC50 was 28.8 µM.

For the compound `Oc1cccc2nc3c(O)cccc3nc12`, the half-maximal inhibitory concentration (IC50) is 11.3 µM.

As for `COc1cccc(NC(=O)C(Sc2cccc(NC(=O)c3ccccc3F)c2)c2ccccc2)c1` (stereo unspecified), the IC50 is 33.6 µM.

With `CC(C)c1ccc(NC(=O)COC(=O)c2ccc(NS(=O)(=O)c3ccc4c(c3)OCCO4)cc2)cc1`, the IC50 was 22.3 µM.

In the case of `O=C(CSc1nc(=O)n(Cc2ccncc2)c2c1CCC2)NCCc1ccccc1`, the IC50 was > 40 µM (inactive).

On to `O=C(NCCc1nc2ccccc2n1Cc1ccccc1F)c1ccc(Cl)cc1`, for which the IC50 is 24.4 µM.

`Cc1cc(-c2ccc(S(=O)(=O)NCc3ccc(Cl)cc3)s2)on1`: the IC50 is > 40 µM (inactive).

In the case of `Cn1cc(NC(=O)Nc2cccc(C(F)(F)F)c2)c2ccccc2c1=O`, the 50% inhibitory concentration (IC50) is 28.5 µM.

As to `Cc1cccc(-c2nnn3c2nc(NCC2CCCO2)c2ccccc23)c1` (stereo unspecified), the IC50 was > 40 µM (inactive).

On to `Cc1ccc(-n2c(=O)[nH]c3c(C(N)=O)nc(-c4ccc(OCc5ccccc5)cc4)nc32)cc1`, for which the IC50 is > 40 µM (inactive).

As to `COc1ccc(/C=C/C(=O)Nc2nc3n(n2)C(c2ccccc2)CC(=O)N3)cc1` (stereo unspecified), the IC50 is > 40 µM (inactive).

Turning to `COc1cc(NC(=O)Cn2c(=O)n(-c3ccc(CC(=O)NCc4ccco4)cc3)c(=O)c3ccccc32)cc(OC)c1`, the IC50 is 23.3 µM.

For the compound `O=C(Nc1cccc2ccccc12)N1CCC(c2nc3c(nnn3Cc3ccc(F)cc3)c(=O)[nH]2)CC1`, the IC50 was > 40 µM (inactive).

For `COc1ccc(S(=O)(=O)N2CCc3ccccc32)cc1C(=O)Nc1ccc2c(c1)NC(=O)C(C)O2` (stereo unspecified), the IC50 is > 40 µM (inactive).

For the compound `CC(C)Cc1ccc(-c2cc(-c3ccc(C(F)(F)F)cc3)c(C#N)c(=O)[nH]2)cc1`, the IC50 was 9.8 µM.

On to `Cc1ccccc1NC(=O)CSC1=NC2(CCCCC2)Nc2ccccc21`, for which the IC50 was > 40 µM (inactive).

Turning to `CC(=O)c1ccc(N2CCN(S(=O)(=O)c3cc4c(cc3C)NC(=O)CO4)CC2)cc1`, the IC50 was > 40 µM (inactive).

As for `Brc1ccc(Nc2nc(-c3ccccn3)nc3ccccc23)cc1`, the IC50 was 21 µM.

Take `COc1ccc(-c2nc(-c3nnn(Cc4ccc(F)cc4)c3C)no2)c(OC)c1`: the IC50 was > 40 µM (inactive).

As to `COc1ccc(N/C=C/c2onc(C)c2[N+](=O)[O-])c(OC)c1`, the IC50 is > 40 µM (inactive).

As to `O=C(Nc1cccnc1)C1c2ccccc2C(=O)N(c2ccccc2)C12CCCCC2` (stereo unspecified), the IC50 was > 40 µM (inactive).

`O=C1Nc2ccccc2C(=O)C1C(c1ccc(Cl)cc1)C1C(=O)Nc2ccccc2C1=O` (stereo unspecified): the IC50 was 10.2 µM.

As to `COc1ccc(-c2nc(SCC(=O)Oc3c(C)cccc3C)n3[nH]c(=O)cc3n2)cc1`, the IC50 is 9.85 µM.

With `CS(=O)(=O)c1cccc(C(=O)Nc2sc3c(c2C(N)=O)CCCC3)c1`, the IC50 was > 40 µM (inactive).

As to `CC(OC(=O)c1cc(S(=O)(=O)Nc2ccccc2F)ccc1Cl)C(=O)Nc1ccc([N+](=O)[O-])cc1C(F)(F)F` (stereo unspecified), the IC50 is 16 µM.

On to `O=C(Nc1c2c(nn1-c1ccc([N+](=O)[O-])cc1)CSC2)c1c(F)cccc1F`, for which the IC50 was > 40 µM (inactive).

For the compound `Cc1cc(NC(=O)CSc2ncc(-c3cccc([N+](=O)[O-])c3)n2-c2cccc(Cl)c2)no1`, the IC50 is > 40 µM (inactive).

`O=C(NCCc1cccnc1)c1ccn(-c2ccc3ccccn23)n1`: the IC50 is > 40 µM (inactive).

Regarding `CN(C)S(=O)(=O)c1ccc(NC(=O)CN2CCCc3ccccc32)cc1`, the IC50 was > 40 µM (inactive).

Take `COc1cc2c(=O)n(CCC(=O)NC3CCCC3)c(=O)n(CC(=O)Nc3cccc(Cl)c3)c2cc1OC`: the IC50 was 36.1 µM.

For the compound `COc1ccc(NC(=O)Cn2c(=O)n(CCCCC(=O)NCc3ccco3)c(=O)c3ccccc32)cc1Cl`, the IC50 is > 40 µM (inactive).
